The record followed here is patent US5569668A (priority 1995, dated 1996).

≈ marks a conversion by molar mass, not a printed value. Where two headings read alike, the source gives them in different places.

Format in all cases: cell-based
The subject of one assay is Bacillus subtilis. Description: MIC of nematophin on candidate microbial pathogens (Bacillus subtilis). As to conditions: 24 h, 35° C., Table 1, read-out: Minimum Inhibitory Concentration (MIC).
Another assay has as its system Botrytis cinerea. As to the kind of experiment: MIC of nematophin on candidate microbial pathogens (Botrytis cinerea). As to conditions: 48 h, 2 d, 24° C., Table 1, read-out: Minimum Inhibitory Concentration (MIC).
For assay [1], the system named is Escherichia coli ATCC25922. Description: MIC of nematophin on candidate microbial pathogens (Escherichia coli ATCC25922). As to conditions: 24 h, 35° C., Table 1, read-out: Minimum Inhibitory Concentration (MIC).
In the next assay the test system is Phytophthora infestans. Description: microbe, parasite or virus in culture. As to conditions: in Secale cereale, 96 h, read-out: Minimum Inhibitory Concentration (MIC).
The subject of assay [2] is Staphylococcus aureus ATCC29213. As to the kind of experiment: MIC of nematophin and its derivatives on Staphylococcus aureus ATCC29213.
Another assay deals with S. aureus 0012. Description: microbe, parasite or virus in culture. Particulars: Staphylococcus aureus, 0012, 24 h; read-out: Minimum Inhibitory Concentration (MIC).
For a further assay, the system named is S. aureus 0017. As to the kind of experiment: microbe, parasite or virus in culture. As to conditions: Staphylococcus aureus, 0017, 24 h; read-out: Minimum Inhibitory Concentration (MIC).
Assay [3] deals with antibiotic resistant Staphylococcus. Particulars: conclusion from Table 1 MICs.
[4] abbreviates: 24 h, 35° C., Table 1, read-out: Minimum Inhibitory Concentration (MIC).
Where [5] appears, read: Table 2, similar bioassays as for nematophin, read-out: Minimum Inhibitory Concentration (MIC) of the derivatives of nematophin.

With `CCC(C)C(=O)C(=O)NCCc1c[nH]c2ccccc12` (racemic) [SID, 3-indoleethyl(3'-methyl-2'-oxo)pentanamide], the MIC with Bacillus subtilis was 12 µg/mL; in the assay with Botrytis cinerea, 12 µg/mL; in assay [1] it was over 100 µg/mL; in the assay on Phytophthora infestans, 2.5 µg/mL (≈ 9.18 µM); in assay [2] (setting [4]), 1.5 µg/mL; in the assay with S. aureus 0012 it was 1.5 µg/mL (≈ 5.51 µM). Further, the MIC with S. aureus 0017 was 1.5 µg/mL (≈ 5.51 µM). In addition, the “antibiotic properties, in particular against antibiotic resistant Staphylococcus” value in assay [3] is listed as “potent properties”.
Regarding `CCC(C)C(=O)C(=O)OCCc1c[nH]c2ccccc12` (stereo not shown) [OIN, 3-indoleethyl(3'-methyl-2'-oxo)pentanoate], the MIC in assay [2] (setting [5]) came to 25 µg/mL.
The same measure, in the same setting: under `CCC(C)C(=O)C(=O)NCCc1c[nH]c2cc(F)ccc12` (stereo not shown) [6-FIN] stands 0.7 µg/mL.
For `CCC(C)C(=O)C(=O)NCCc1c[nH]c2ccc(OC)cc12` (stereo not shown) [5-MeOIN], the MIC in assay [2] (setting [5]) worked out at 3 µg/mL.
In the case of `CCC(C)C(=O)C(=O)NCCc1c[nH]c2ccccc12` (single isomer, unassigned) [NID, 3-indoleethyl 3-methyl-2-oxo-pentanamide], the MIC with Bacillus subtilis is 12 µg/mL; with Botrytis cinerea it was 12 µg/mL; in assay [1], over 100 µg/mL; in assay [2] (setting [4]), 0.7 µg/mL; with S. aureus 0012, 0.7 µg/mL (≈ 2.57 µM); in the assay with S. aureus 0017, 0.7 µg/mL (≈ 2.57 µM). In assay [3], the “antibiotic properties, in particular against antibiotic resistant Staphylococcus” value is given as “potent properties”.
In the case of `CCC(=O)C(=O)NCCc1c[nH]c2ccccc12` [BAMIDE, 3-indoleethyl(2'-oxo)butanamide], the MIC in assay [2] (setting [5]) was found to be 100 µg/mL.
Still for that read-out and setting: under `CC(=O)C(=O)NCCc1c[nH]c2ccccc12` [PAMIDE, 3-indoleethyl(2'-oxo)propanamide] stands 100 µg/mL; under `CCC(C)C(=O)C(=O)NCCc1c[nH]c2ccc(C)cc12` (stereo not shown) [5-MeIN], 3 µg/mL.
The same measure, in the same setting: under `CC(C)C(=O)C(=O)NCCc1c[nH]c2ccccc12` [MAMIDE] stands 3 µg/mL.
